Assay results reported in ChEMBL document CHEMBL4152365, “Discovery of DS-6930, a potent selective PPARγ modulator. Part I: Lead identification” (Bioorg Med Chem, 2018).
Values after ≈ are worked out from the molar mass of the structure shown. Active and inactive are the calls of the source. No cut-off for these calls is given here.

Biological target: T1, Peroxisome proliferator-activated receptor alpha (Homo sapiens, UniProt Q07869)
T1 sequence (Q07869 whole entry): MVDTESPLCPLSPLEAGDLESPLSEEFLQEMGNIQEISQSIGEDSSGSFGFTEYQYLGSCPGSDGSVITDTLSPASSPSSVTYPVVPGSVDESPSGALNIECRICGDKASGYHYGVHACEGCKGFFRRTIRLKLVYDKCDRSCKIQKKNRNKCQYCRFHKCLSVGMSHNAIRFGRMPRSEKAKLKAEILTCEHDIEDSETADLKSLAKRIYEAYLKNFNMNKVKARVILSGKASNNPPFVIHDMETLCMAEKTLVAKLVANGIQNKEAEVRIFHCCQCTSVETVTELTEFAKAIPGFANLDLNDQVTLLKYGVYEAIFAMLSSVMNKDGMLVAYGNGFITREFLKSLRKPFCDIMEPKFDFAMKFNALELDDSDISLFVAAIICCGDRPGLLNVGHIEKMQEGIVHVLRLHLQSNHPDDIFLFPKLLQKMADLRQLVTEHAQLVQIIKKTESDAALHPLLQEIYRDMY
Test: Agonist activity at recombinant human GAL4-DBD fused PPARalpha LBD expressed in COS7 cells after 24 hrs by luciferase reporter gene assay
Assay type: cell-based
Details: not given

Row | EC50 [nM] | SMILES
1 | > 10000 | COc1cccc(Oc2ccc3nc(COc4cccc(C(=O)O)c4)n(C)c3c2)c1
2 | > 10000 | Cn1c(COc2cccc(C(=O)O)c2)nc2ccc(Oc3cccc(F)c3)cc21

The remaining lines, values behind:

Row | SMILES | EC50 [nM]
3 | Cc1ccccc1Oc1ccc2nc(COc3cccc(C(=O)O)c3)n(C)c2c1 | > 10000
4 | Cn1c(COc2cccc(C(=O)O)c2)nc2ccc(Oc3cc(F)cc(Cl)c3)cc21 | > 10000
5 | Cn1c(COc2cccc(C(=O)O)c2)nc2ccc(Oc3ccccc3F)cc21 | > 10000

Test system: Mus musculus
Test: Glucose-lowering effect in hyperglycemic KK/Ta mouse assessed as reduction in plasma glucose level at 30 mg/kg/day, po administered through diet for 3 days relative to control
Assay type: functional
Set-up: scale not given: the % may be the effect or the level left
Details: not given

Row | SMILES | Activity [%]
6 | Cl.Cn1c(COc2cccc(C(=O)O)c2)nc2ccc(Oc3cccc(Cl)c3)cc21 | 59.6
7 | Cc1ccccc1Oc1ccc2nc(COc3cccc(C(=O)O)c3)n(C)c2c1 | 26.9
8 | Cl.Cn1c(COc2cccc(C(=O)O)c2)nc2ccc(Oc3cccc(C(F)(F)F)c3)cc21 | 45.1
9 | Cn1c(COc2cccc(C(=O)O)c2)nc2ccc(Oc3cc(F)cc(Cl)c3)cc21 | 57.5
10 | Cn1c(COc2cccc(C(=O)O)c2)nc2ccc(Oc3cccc(F)c3)cc21 | 52.1

Test system: not listed separately
Test: Aqueous thermodynamic solubility of the compound in pH 6.8 solution up to 4 hrs by HPLC-UV analysis
Assay type: physicochemical
Details: read-out: Therm_solubility

Row | solubility thermodynamic at 4 h [µg/mL] | SMILES
11 | 5.4 (≈ 13.4 µM) | COc1cccc(Oc2ccc3nc(COc4cccc(C(=O)O)c4)n(C)c3c2)c1
12 | 2.2 (≈ 5.61 µM) | Cn1c(COc2cccc(C(=O)O)c2)nc2ccc(Oc3cccc(F)c3)cc21

Continued, compound first:

Row | SMILES | solubility thermodynamic at 4 h [µg/mL]
13 | Cl.Cn1c(COc2cccc(C(=O)O)c2)nc2ccc(Oc3ccccc3)cc21 | 2
14 | Cc1ccccc1Oc1ccc2nc(COc3cccc(C(=O)O)c3)n(C)c2c1 | 2.2 (≈ 5.66 µM)
15 | Cn1c(COc2cccc(C(=O)O)c2)nc2ccc(Oc3cc(F)cc(Cl)c3)cc21 | 0.9 (≈ 2.11 µM)
16 | Cn1c(COc2cccc(C(=O)O)c2)nc2ccc(Oc3ccccc3F)cc21 | 12 (≈ 30.6 µM)

Biological target: T2, Peroxisome proliferator-activated receptor gamma (Homo sapiens) (UniProt P37231)
T2 sequence (whole entry): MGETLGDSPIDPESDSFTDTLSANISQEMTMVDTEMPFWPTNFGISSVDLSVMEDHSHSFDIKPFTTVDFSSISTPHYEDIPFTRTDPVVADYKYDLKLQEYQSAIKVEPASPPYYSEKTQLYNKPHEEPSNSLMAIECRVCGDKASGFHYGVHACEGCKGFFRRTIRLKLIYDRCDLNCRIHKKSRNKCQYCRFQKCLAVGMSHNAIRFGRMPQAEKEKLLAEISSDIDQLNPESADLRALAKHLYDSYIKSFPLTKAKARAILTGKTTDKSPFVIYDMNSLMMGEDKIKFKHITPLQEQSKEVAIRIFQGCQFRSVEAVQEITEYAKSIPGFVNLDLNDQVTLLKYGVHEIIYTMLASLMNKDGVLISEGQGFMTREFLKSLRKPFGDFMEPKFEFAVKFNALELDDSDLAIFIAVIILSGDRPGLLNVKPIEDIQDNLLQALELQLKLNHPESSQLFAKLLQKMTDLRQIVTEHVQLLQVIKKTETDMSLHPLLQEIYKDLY
Test: Agonist activity at recombinant human GAL4-DBD fused PPARgamma LBD expressed in COS7 cells at 10 uM after 24 hrs by luciferase reporter gene assay relative to rosiglitazone
Assay type: cell-based
Details: not given

Row | Emax [%] | SMILES
17 | 103 | Cl.Cn1c(COc2cccc(C(=O)O)c2)nc2ccc(Oc3cccc(Cl)c3)cc21
18 | 92 | COc1cccc(Oc2ccc3nc(COc4cccc(C(=O)O)c4)n(C)c3c2)c1
19 | 75 | Cn1c(COc2cccc(C(=O)O)c2)nc2ccc(Oc3cccc(F)c3)cc21

Second part, the compound before the results:

Row | SMILES | Emax [%]
20 | Cl.Cn1c(COc2cccc(C(=O)O)c2)nc2ccc(Oc3ccccc3)cc21 | 90
21 | Cc1ccccc1Oc1ccc2nc(COc3cccc(C(=O)O)c3)n(C)c2c1 | 80
22 | Cl.Cn1c(COc2cccc(C(=O)O)c2)nc2ccc(Oc3cccc(C(F)(F)F)c3)cc21 | 81
23 | Cn1c(COc2cccc(C(=O)O)c2)nc2ccc(Oc3cc(F)cc(Cl)c3)cc21 | 78
24 | Cn1c(COc2cccc(C(=O)O)c2)nc2ccc(Oc3ccccc3F)cc21 | 125

Biological target: T3, Peroxisome proliferator-activated receptor delta (Homo sapiens) (UniProt Q03181)
T3 sequence (whole entry): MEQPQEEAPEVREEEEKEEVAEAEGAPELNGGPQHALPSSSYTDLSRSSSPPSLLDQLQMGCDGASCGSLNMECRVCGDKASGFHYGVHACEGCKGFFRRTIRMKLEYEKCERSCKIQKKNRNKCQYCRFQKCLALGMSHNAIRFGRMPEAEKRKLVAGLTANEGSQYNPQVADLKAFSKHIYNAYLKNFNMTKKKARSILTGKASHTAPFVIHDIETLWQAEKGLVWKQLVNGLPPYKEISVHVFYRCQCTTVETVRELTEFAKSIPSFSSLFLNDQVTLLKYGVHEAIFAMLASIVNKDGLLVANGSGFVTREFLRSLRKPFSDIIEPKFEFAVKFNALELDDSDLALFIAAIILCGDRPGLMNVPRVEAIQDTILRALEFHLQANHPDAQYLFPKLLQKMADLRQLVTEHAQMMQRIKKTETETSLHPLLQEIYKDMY
Test: Agonist activity at PPARdelta (unknown origin) at 10 uM
Details: not given

Row | Activity | SMILES
25 | inactive | Cl.Cn1c(COc2cccc(C(=O)O)c2)nc2ccc(Oc3cccc(Cl)c3)cc21
26 | inactive | COc1cccc(Oc2ccc3nc(COc4cccc(C(=O)O)c4)n(C)c3c2)c1
27 | inactive | Cn1c(COc2cccc(C(=O)O)c2)nc2ccc(Oc3cccc(F)c3)cc21

Further lines, the compound ahead of its results:

Row | SMILES | Activity
28 | Cl.Cn1c(COc2cccc(C(=O)O)c2)nc2ccc(Oc3ccccc3)cc21 | inactive
29 | Cc1ccccc1Oc1ccc2nc(COc3cccc(C(=O)O)c3)n(C)c2c1 | inactive
30 | Cl.Cn1c(COc2cccc(C(=O)O)c2)nc2ccc(Oc3cccc(C(F)(F)F)c3)cc21 | inactive
31 | Cn1c(COc2cccc(C(=O)O)c2)nc2ccc(Oc3ccccc3F)cc21 | inactive

Biological target: T4, Peroxisome proliferator-activated receptor gamma (Homo sapiens, UniProt P37231)
T4 sequence (P37231 whole entry): T2 sequence (whole entry)
Test: Agonist activity at recombinant human GAL4-DBD fused PPARgamma LBD expressed in COS7 cells after 24 hrs by luciferase reporter gene assay
Assay type: cell-based
Details: not given

Row | EC50 [nM] | SMILES
32 | 86 | Cl.Cn1c(COc2cccc(C(=O)O)c2)nc2ccc(Oc3cccc(Cl)c3)cc21
33 | 235 | COc1cccc(Oc2ccc3nc(COc4cccc(C(=O)O)c4)n(C)c3c2)c1
34 | 201 | Cn1c(COc2cccc(C(=O)O)c2)nc2ccc(Oc3cccc(F)c3)cc21

More lines, now with the values behind:

Row | SMILES | EC50 [nM]
35 | Cc1ccccc1Oc1ccc2nc(COc3cccc(C(=O)O)c3)n(C)c2c1 | 56
36 | Cl.Cn1c(COc2cccc(C(=O)O)c2)nc2ccc(Oc3cccc(C(F)(F)F)c3)cc21 | 23
37 | Cn1c(COc2cccc(C(=O)O)c2)nc2ccc(Oc3cc(F)cc(Cl)c3)cc21 | 23
38 | Cn1c(COc2cccc(C(=O)O)c2)nc2ccc(Oc3ccccc3F)cc21 | 1430

Test system: Mus musculus
Test: Toxicity in hyperglycemic KK/Ta mouse assessed as body weight gain at 30 mg/kg/day, po administered through diet for 3 days relative to control
Assay type: organism-based
Details: in vivo, 72 h

Row | SMILES | Activity [%]
39 | Cl.Cn1c(COc2cccc(C(=O)O)c2)nc2ccc(Oc3cccc(Cl)c3)cc21 | 2.8
40 | Cc1ccccc1Oc1ccc2nc(COc3cccc(C(=O)O)c3)n(C)c2c1 | 3.7
41 | Cl.Cn1c(COc2cccc(C(=O)O)c2)nc2ccc(Oc3cccc(C(F)(F)F)c3)cc21 | 3.8
42 | Cn1c(COc2cccc(C(=O)O)c2)nc2ccc(Oc3cc(F)cc(Cl)c3)cc21 | 3.1
43 | Cn1c(COc2cccc(C(=O)O)c2)nc2ccc(Oc3cccc(F)c3)cc21 | 3.2

Test system: not listed separately
Test: 1-octanol/PBS distribution co-efficient, log D of the compound at […] at pH 7.4 after 30 mins by HPLC-MS/MS analysis
Assay type: physicochemical
Details: not given

Row | logD at 0.5 h | SMILES
44 | 2.7 | Cl.Cn1c(COc2cccc(C(=O)O)c2)nc2ccc(Oc3cccc(Cl)c3)cc21
45 | 1.8 | COc1cccc(Oc2ccc3nc(COc4cccc(C(=O)O)c4)n(C)c3c2)c1
46 | 2 | Cn1c(COc2cccc(C(=O)O)c2)nc2ccc(Oc3cccc(F)c3)cc21

More lines, now with the values behind:

Row | SMILES | logD at 0.5 h
47 | Cl.Cn1c(COc2cccc(C(=O)O)c2)nc2ccc(Oc3ccccc3)cc21 | 1.8
48 | Cc1ccccc1Oc1ccc2nc(COc3cccc(C(=O)O)c3)n(C)c2c1 | 2.4
49 | Cl.Cn1c(COc2cccc(C(=O)O)c2)nc2ccc(Oc3cccc(C(F)(F)F)c3)cc21 | 2.8
50 | Cn1c(COc2cccc(C(=O)O)c2)nc2ccc(Oc3cc(F)cc(Cl)c3)cc21 | 2.8
51 | Cn1c(COc2cccc(C(=O)O)c2)nc2ccc(Oc3ccccc3F)cc21 | 1.7

Biological target: T5, Peroxisome proliferator-activated receptor alpha (Homo sapiens) (UniProt Q07869)
T5 sequence (whole entry): T1 sequence (Q07869 whole entry)
Test: Agonist activity at recombinant human GAL4-DBD fused PPARalpha LBD expressed in COS7 cells at 10 uM after 24 hrs by luciferase reporter gene assay relative to 2-(4-tert-Butylphenoxy)-3-[4-[2-[(4-pyridin-2-ylbenzoyl)amino]ethoxy]
Assay type: cell-based
Details: not given

Row | Emax [%] | SMILES
52 | 69 | Cl.Cn1c(COc2cccc(C(=O)O)c2)nc2ccc(Oc3cccc(Cl)c3)cc21
53 | 30 | COc1cccc(Oc2ccc3nc(COc4cccc(C(=O)O)c4)n(C)c3c2)c1
54 | 22 | Cn1c(COc2cccc(C(=O)O)c2)nc2ccc(Oc3cccc(F)c3)cc21

Second part, the compound before the results:

Row | SMILES | Emax [%]
55 | Cc1ccccc1Oc1ccc2nc(COc3cccc(C(=O)O)c3)n(C)c2c1 | 16
56 | Cl.Cn1c(COc2cccc(C(=O)O)c2)nc2ccc(Oc3cccc(C(F)(F)F)c3)cc21 | 56
57 | Cn1c(COc2cccc(C(=O)O)c2)nc2ccc(Oc3cc(F)cc(Cl)c3)cc21 | 43
58 | Cn1c(COc2cccc(C(=O)O)c2)nc2ccc(Oc3ccccc3F)cc21 | 21

Test system: not listed separately
Test: Plasma concentration in hyperglycemic KK/Ta mouse at 30 mg/kg/day, po administered through diet for 3 days measured on day 3 post last dose
Assay type: ADME, organism-based
Details: not given

Row | concentration at 72 h [ng/mL] | SMILES
59 | 190 | Cl.Cn1c(COc2cccc(C(=O)O)c2)nc2ccc(Oc3cccc(Cl)c3)cc21
60 | 1740 | Cn1c(COc2cccc(C(=O)O)c2)nc2ccc(Oc3cccc(F)c3)cc21

The next lines start with the compound.

Row | SMILES | concentration at 72 h [ng/mL]
61 | Cc1ccccc1Oc1ccc2nc(COc3cccc(C(=O)O)c3)n(C)c2c1 | 100
62 | Cl.Cn1c(COc2cccc(C(=O)O)c2)nc2ccc(Oc3cccc(C(F)(F)F)c3)cc21 | 90
63 | Cn1c(COc2cccc(C(=O)O)c2)nc2ccc(Oc3cc(F)cc(Cl)c3)cc21 | 370

Test system: not listed separately
Test: Metabolic stability in human liver microsomes after 0.5 hrs
Assay type: ADME, microsome
Details: read-out: Stability

Row | remaining at 0.5 h [%] | SMILES
64 | 90 | Cl.Cn1c(COc2cccc(C(=O)O)c2)nc2ccc(Oc3cccc(Cl)c3)cc21
65 | 68 | COc1cccc(Oc2ccc3nc(COc4cccc(C(=O)O)c4)n(C)c3c2)c1
66 | 98 | Cn1c(COc2cccc(C(=O)O)c2)nc2ccc(Oc3cccc(F)c3)cc21

Second part, the compound before the results:

Row | SMILES | remaining at 0.5 h [%]
67 | Cl.Cn1c(COc2cccc(C(=O)O)c2)nc2ccc(Oc3ccccc3)cc21 | 100
68 | Cc1ccccc1Oc1ccc2nc(COc3cccc(C(=O)O)c3)n(C)c2c1 | 62
69 | Cl.Cn1c(COc2cccc(C(=O)O)c2)nc2ccc(Oc3cccc(C(F)(F)F)c3)cc21 | 85
70 | Cn1c(COc2cccc(C(=O)O)c2)nc2ccc(Oc3cc(F)cc(Cl)c3)cc21 | 78
